Where two headings read alike, the source gives them in different places. Marks after values point to notes of the source that are not given here.
Assays:
human TLR7 = target: T1, human TLR7 (Homo sapiens, UniProt Q9NYK1); assay: Human TLR7 reporter assay (NF-kB-SEAP, HEK 293 cells); format: cell-based; conditions: read-out: human TLR7 binding activity EC50
T1 construct: expressed in transfected cells; host or cells: HEK 293 (hTLR7/seap-293)
T1 sequence (Q9NYK1 27-1049): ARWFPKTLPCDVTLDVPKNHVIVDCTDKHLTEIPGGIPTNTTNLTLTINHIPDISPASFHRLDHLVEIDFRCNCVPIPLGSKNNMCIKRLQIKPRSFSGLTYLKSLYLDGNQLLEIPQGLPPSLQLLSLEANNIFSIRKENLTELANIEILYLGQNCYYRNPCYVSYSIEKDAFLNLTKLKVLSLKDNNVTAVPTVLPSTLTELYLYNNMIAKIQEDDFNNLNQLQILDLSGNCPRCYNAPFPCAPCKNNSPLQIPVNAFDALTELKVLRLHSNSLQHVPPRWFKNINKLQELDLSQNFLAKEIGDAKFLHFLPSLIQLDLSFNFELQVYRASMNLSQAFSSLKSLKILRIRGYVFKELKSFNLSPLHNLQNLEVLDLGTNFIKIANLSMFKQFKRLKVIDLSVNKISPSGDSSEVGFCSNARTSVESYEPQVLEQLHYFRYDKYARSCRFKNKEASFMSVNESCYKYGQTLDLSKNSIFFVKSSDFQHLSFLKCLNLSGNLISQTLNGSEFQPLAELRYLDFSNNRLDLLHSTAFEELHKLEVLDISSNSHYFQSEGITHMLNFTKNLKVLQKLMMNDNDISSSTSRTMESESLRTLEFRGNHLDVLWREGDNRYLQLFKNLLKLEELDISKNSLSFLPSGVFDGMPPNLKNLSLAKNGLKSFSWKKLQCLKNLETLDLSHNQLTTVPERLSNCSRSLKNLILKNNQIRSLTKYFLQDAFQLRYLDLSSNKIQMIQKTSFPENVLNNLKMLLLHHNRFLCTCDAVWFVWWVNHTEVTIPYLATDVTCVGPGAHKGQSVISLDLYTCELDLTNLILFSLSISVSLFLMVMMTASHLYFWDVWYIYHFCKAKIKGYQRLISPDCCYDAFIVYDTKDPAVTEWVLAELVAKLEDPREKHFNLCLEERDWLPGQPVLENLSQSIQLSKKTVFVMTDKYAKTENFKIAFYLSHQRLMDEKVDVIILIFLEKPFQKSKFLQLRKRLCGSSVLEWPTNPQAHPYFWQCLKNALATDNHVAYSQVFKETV
Protocol: HEK 293 cells, to which human TLR7 or rat TLR7 plasmid and reporter plasmid (NF-kB-SEAP) were stably introduced, were suspended in DMEM medium (10% FBS, 1% NEAA, 10 ug/mL blastocidin S HCl, 100 ug/mL Zeocin), and seeded into a 96-well plate in an amount of 90 μl/well (hTLR7/seap-293: 20,000 cells/well, rTLR7/seap-293: 25,000 cells/well).
A test compound (DMSO stock solution (2 μl) was diluted into 100-fold with the medium (200 μl)) was added into the cells seeded in the 96-well plate in an amount of 10 μl/well (final concentration: 1 nM to 10 μM, common ratio: 3). The side of the plate was lightly patted for stiffing the content of the plate, and the plate was incubated for 20 hours in a CO2 incubator. To the cells that were stimulated with a test compound was added a substrate for reporter assay (substrate for SEAP, pNPP) in an amount of 50 μl/well. The minute later after the addition of the substrate, the solution for reaction quenching (4N NaOH) was added to the plate in an amount of ? 50 μl/well in order to quench the enzyme reaction. A top seal A was applied to the plate, and the absorbance at 405 nm was measured by a microplate reader.
In a similar manner to Example 85, the following compounds were tested.

IFN-α = IFN-α production inducing activity in mice (plasma IFN-α by L929/2-5AS-Luc bioassay); format: in vivo, B6C3F1 mice; conditions: 3 hours after 1 mg/kg intravenously via tail vein, mean ± standard deviation (n = 3)
Protocol: A test compound was administered to B6C3F1 mice (Charles River Japan, Inc.) via tail vein at the dose of 1 mg/kg intravenously. After 3 hours, total blood was collected into a sample tube containing heparin. Plasma was prepared from total blood after centrifugation (3,000 rpm, 10 min, at room temperature) and stored at −20° C.
Murine fibroblasts (L929/2-5AS-Luc), which constitutively expressed luciferase gene in which the promoter region for 2′-5′-oligoadenylate synthase was cloned, was seeded into 96-well plate at 4×10^4 cells/well, and cultured for overnight with diluted plasma or mouse IFN-α. After Luclite (Perkin Elmer) was added to the plate, the luciferase activity was measured with TopCount (Perkin Elmer).
The concentration of IFN-α in plasma was calculated by linear regression of logarithmic transformed concentration of mouse IFN-α and the luciferase activity.

[1] = Table 6, tested in a similar manner to Example 85
[2] = Table 1, HEK 293 hTLR7/NF-kB-SEAP reporter, 20 hours incubation

| SMILES | EC50 (human TLR7; [1]) [nM] | EC50 (human TLR7; [2]) [nM] | also measured |
| --- | --- | --- | --- |
| COCCOc1nc(N)c2[nH]c(=O)n(Cc3cnc(OCC(C)(C)CN(C)C)c(Cl)c3)c2n1 [Example 120, 6-Amino-9-[5-chloro-6-(3-dimethylamino-2,2-dimethylpropoxy)pyridin-3-ylmethyl]-2-(2-methoxyethoxy)-7,9-dihydropurin-8-one] | 3.7 |  |  |
| CCCCNc1nc(N)c2[nH]c(=O)n(Cc3ccc(OCCN(C)C)nc3)c2n1 [Example 54, 6-Amino-2-butylamino-9-[6-(2-dimethylaminoethoxy)pyridin-3-ylmethyl]-7,9-dihydropurin-8-one] |  |  | Mouse IFN-α (IFN-α): 53.6 ± 6.5^a) IU/mL |
| COCCOc1nc(N)c2[nH]c(=O)n(Cc3cnc(OCCN(C)C)c(Cl)c3)c2n1 [Example 118, 6-Amino-9-[5-chloro-6-(2-dimethylaminoethoxy)pyridin-3-ylmethyl]-2-(2-methoxyethoxy)-7,9-dihydropurin-8-one] | 14 |  |  |
| CCCCOc1nc(N)c2[nH]c(=O)n(Cc3ccc(CN4CCN(C)CC4)cc3)c2n1 [Example 3, 6-Amino-2-butoxy-9-[4-(4-methylpiperazin-1-ylmethyl)benzyl]-7,9-dihydropurin-8-one] |  | 1.8 |  |
| CCCCOc1nc(N)c2[nH]c(=O)n(Cc3ccc(OCCCN(C)C)cc3)c2n1 [Example 37, 6-Amino-2-butoxy-9-[4-(3-dimethylaminopropoxy)benzyl]-7,9-dihydropurin-8-one] |  | 1.1 |  |
| COCCOc1nc(N)c2[nH]c(=O)n(Cc3ccc(CN4CCCCC4)cc3)c2n1 [Example 10, 6-Amino-2-(2-methoxyethoxy)-9-(4-piperidin-1-ylmethylbenzyl)-7,9-dihydropurin-8-one] |  |  | Mouse IFN-α (IFN-α): 7.3 ± 1.6 IU/mL |
| COCCOc1nc(N)c2[nH]c(=O)n(Cc3ccc(OCC(C)(C)CN(C)C)nc3)c2n1 [Example 110, 6-Amino-9-[6-(3-dimethylamino-2,2-dimethylpropoxy)pyridin-3-ylmethyl]-2-(2-methoxyethoxy)-7,9-dihydropurin-8-one] | 16.5 |  |  |
| CCCCOc1nc(N)c2nc(O)n(Cc3ccc(CN4CCOCC4)cc3)c2n1 [Example 1, 6-Amino-2-butoxy-9-(4-morpholin-4-ylmethylbenzyl)-7,9-dihydropurin-8-one] |  | 7.2 |  |
| COCCOc1nc(N)c2[nH]c(=O)n(Cc3ccc(CN4CCC(Oc5ccccc5)CC4)cc3)c2n1 [Example 13, 6-Amino-2-(2-methoxyethoxy)-9-[4-(4-phenoxypiperidin-1-ylmethyl)benzyl]-7,9-dihydropurin-8-one] |  | 18.7 |  |
| CCOc1nc(N)c2[nH]c(=O)n(Cc3ccc(CN4CCOCC4)cc3)c2n1 [Example 68, 6-Amino-2-ethoxy-9-(4-morpholin-4-ylmethylbenzyl)-7,9-dihydropurin-8-one] |  | 5.5 |  |
| Nc1nc(OCCCC(F)(F)F)nc2c1[nH]c(=O)n2Cc1ccc(CN2CCOCC2)cc1 [Example 23, 6-Amino-9-(4-morpholin-4-ylmethylbenzyl)-2-(4,4,4-trifluorobutoxy)-7,9-dihydropurin-8-one] |  | 14.8 |  |
| CCCCOc1nc(N)c2[nH]c(=O)n(Cc3ccc(CN4CCC(N(C)C)CC4)cc3)c2n1 [Example 4, 6-Amino-2-butoxy-9-[4-(4-dimethylaminopiperidin-1-ylmethyl)benzyl]-7,9-dihydropurin-8-one] |  | 2.5 |  |
| CCCCOc1nc(N)c2[nH]c(=O)n(Cc3ccc(N(C)CCN(C)C)nc3)c2n1 [Example 104, 6-Amino-2-butoxy-9-{6-[(2-dimethylaminoethyl)methylamino]pyridin-3-ylmethyl}-7,9-dihydropurin-8-one] | 5.3 |  |  |
| CCCCNc1nc(N)c2[nH]c(=O)n(Cc3ccc(CN4CCCCC4)cc3)c2n1 [Example 29, 6-Amino-2-butylamino-9-(4-piperidin-1-ylmethylbenzyl)-7,9-dihydropurin-8-one] |  | 7.6 |  |
| CCCCNc1nc(N)c2[nH]c(=O)n(Cc3cnc(N4CCN(C)CC4)c(Cl)c3)c2n1 [Example 56, 6-Amino-2-butylamino-9-[5-chloro-6-(4-methylpiperazin-1-yl)pyridin-3-ylmethyl]-7,9-dihydropurin-8-one] |  | 1.3 |  |
| CCCCNc1nc(N)c2[nH]c(=O)n(Cc3cnc(OCCN(C)C)c(Cl)c3)c2n1 [Example 58, 6-Amino-2-butylamino-9-[5-chloro-6-(2-dimethylaminoethoxy)pyridin-3-ylmethyl]-7,9-dihydropurin-8-one] |  | 3.7 |  |
| CCCCOc1nc(N)c2[nH]c(=O)n(Cc3ccc(CN4CCC(N(C)C)C4)cc3)c2n1 (centres unmarked) [Example 5, 6-Amino-2-butoxy-9-[4-(3-dimethylaminopyrrolidin-1-ylmethyl)benzyl]-7,9-dihydropurin-8-one] |  | 2.7 |  |
| CCCCOc1nc(N)c2[nH]c(=O)n(Cc3ccc(CN4CCCCC4)cc3)c2n1 [Example 2, 6-Amino-2-butoxy-9-(4-piperidin-1-ylmethylbenzyl)-7,9-dihydropurin-8-one] |  | 0.9 |  |
| COCCOc1nc(N)c2[nH]c(=O)n(Cc3ccc(N4CCN(C)CC4)nc3)c2n1 [Example 42, 6-Amino-2-(2-methoxyethoxy)-9-[6-(4-methylpiperazin-1-yl)pyridin-3-ylmethyl]-7,9-dihydropurin-8-one] |  |  | Mouse IFN-α (IFN-α): 30.0 ± 7.3 IU/mL |
| COCCOc1nc(N)c2[nH]c(=O)n(Cc3cnc(N4CCN(C)CC4)c(Cl)c3)c2n1 [Example 105, 6-Amino-9-[5-chloro-6-(4-methylpiperazin-1-yl)pyridin-3-ylmethyl]-2-(2-methoxyethoxy)-7,9-dihydropurin-8-one] | 3.3 |  |  |
| COCCOc1nc(N)c2[nH]c(=O)n(Cc3cnc(OC4CCN(C)CC4)c(Cl)c3)c2n1 [Example 123, 6-Amino-9-[5-chloro-6-(1-methylpiperidin-4-yloxy)pyridin-3-ylmethyl]-2-(2-methoxyethoxy)-7,9-dihydropurin-8-one] | 6.9 |  |  |
| CCCCOc1nc(N)c2[nH]c(=O)n(Cc3ccc(CN4CCN(C(=O)CN(C)C)CC4)cc3)c2n1 [Example 94, 6-Amino-2-butoxy-9-{4-[4-(2-dimethylaminoacetyl)piperazin-1-ylmethyl]benzyl}-7,9-dihydropurin-8-one] | 2.5 |  |  |
| CCCCNc1nc(N)c2[nH]c(=O)n(Cc3ccc(OCCCN(C)C)nc3)c2n1 [Example 116, 6-Amino-2-butylamino-9-[6-(3-dimethylaminopropoxy)pyridin-3-ylmethyl]-7,9-dihydropurin-8-one] | 19.6 |  |  |

Source: patent US20110028715A1, “NOVEL ADENINE COMPOUND” (priority 2007, published 2011)
